Values after ≈ are worked out from the molar mass of the structure shown. Like-named read-outs stand apart in the source and are kept apart here. Some results are limits rather than exact numbers.

Holding throughout (assay type): cell-based
Assay [1] relates to Mutant-4 of Enterococcus fecalis NR 31975. Nature of the assay: microbe, parasite or virus in culture.
Assay [2] deals with Bifidobacterium longum subsp. Longum 44B HM 845. Nature of the assay: MIC against human normal gut microbiota. As to conditions: Table 3, BHIS broth, anaerobic, 48 hours. In outline:
(§1)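 Bifidobacterium and Bacteroides were pre-grown on BHIS agar (hemin, vitamin K, L-cysteine) anaerobically, Lactobacillus on MRS agar under 5% CO2, each 48 h at 37° C. Inocula of ~5×10^5 CFU/ml in BHIS or MRS broth were exposed to serial compound dilutions for 48 h under the same conditions.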

The subject of assay [3] is Bacteroides fragilis CL07T00C01 HM-709. Nature of the assay: MIC against human normal gut microbiota. As to conditions: Table 3, BHIS broth, anaerobic, 48 hours, read-out: MIC. An outline of the steps: as §1
For assay [4], the system named is Bacteroides dorei CL02T12C06 HM-719. The experiment in a line: MIC against human normal gut microbiota. To be noted: Phocaeicola dorei; Table 3; BHIS broth, anaerobic, 48 hours; read-out: MIC. An outline of the steps: as §1
In assay [5] the test system is Bifidobacterium breve JCP7499 HM 1120. Nature of the assay: MIC against human normal gut microbiota. To be noted: JCP7499HM1120, Table 3, BHIS broth, anaerobic, 48 hours, read-out: MIC. In outline: as §1
In assay [6] the test system is Lactobacillus casei ATCC 334. Nature of the assay: MIC against human normal gut microbiota. As to conditions: Lacticaseibacillus casei, ATCC334; Table 3; MRS broth, 5% CO2, 48 hours. An outline of the steps:
as §1

The test system of assay [7] is Lactobacillus gasseri EX336960VC03 HM-400. The experiment in a line: MIC against human normal gut microbiota. To be noted: Table 3, MRS broth, 5% CO2, 48 hours. In outline:
as §1

For assay [8], the system named is Mutant-14 of Enterococcus fecalis NR 31975. The experiment in a line: microbe, parasite or virus in culture.
Assay [9] has as its system Mutant-3 of Enterococcus fecalis NR 31975. The experiment in a line: microbe, parasite or virus in culture.
The subject of assay [10] is Enterococcus faecalis S613 HM-334. The experiment in a line: MIC, broth microdilution (CLSI). As to conditions: Enterococcus faecalis, read-out: MIC. In general terms: Dilution methods test growth across graded concentrations, often in twofold steps.
The test system of assay [11] is Mutant-15 of Enterococcus fecalis NR 31975. The experiment in a line: microbe, parasite or virus in culture.
Assay [12] has as its system Mutant-6 of Enterococcus fecalis NR 31975. The experiment in a line: microbe, parasite or virus in culture.
The subject of assay [13] is Mutant-9 of Enterococcus fecalis NR 31975. The experiment in a line: microbe, parasite or virus in culture.
For assay [14], the system named is Mutant-5 of Enterococcus fecalis NR 31975. Nature of the assay: microbe, parasite or virus in culture.
For assay [15], the system named is Mutant-11 of Enterococcus fecalis NR 31975. The experiment in a line: microbe, parasite or virus in culture.
For assay [16], the system named is Mutant-13 of Enterococcus fecalis NR 31975. Nature of the assay: microbe, parasite or virus in culture.

Regarding `CC(C)=CC(=O)Nc1nnc(S(N)(=O)=O)s1` [CAI0016, 3-Methyl-N-(5-sulfamoyl-1,3,4-thiadiazol-2-yl)but-2-enamide], the MIC was 8 µg/mL (≈ 30.5 µM) in assay [1]; above 64 µg/mL in assay [2]; above 64 µg/mL in [3]; above 64 µg/mL in [4]; above 64 µg/mL in [5]; above 64 µg/mL in assay [6]. The MIC in assay [7] is above 64 µg/mL; in assay [8], 4 µg/mL (≈ 15.2 µM); in [9], 4 µg/mL (≈ 15.2 µM); in assay [10] (S613HM334, Table 1, TSB), 0.5 µg/mL (≈ 1.91 µM); in [10] (S613HM334, Table 6, TSB in presence of 4% human serum albumin), above 256 µg/mL; in [10] (S613HM334, Table 7, TSB), 0.25 µg/mL (≈ 0.953 µM). In addition, the MIC is 8 µg/mL (≈ 30.5 µM) in [11]; 16 µg/mL (≈ 61 µM) in assay [12]; 4 µg/mL (≈ 15.2 µM) in assay [13]; 4 µg/mL (≈ 15.2 µM) in assay [14]; 4 µg/mL (≈ 15.2 µM) in assay [15]; 4 µg/mL (≈ 15.2 µM) in assay [16].

The record behind these values is patent publication US20250328351A1, “CARBONIC ANHYDRASE INHIBITORS AND ANTIBIOTICS AGAINST MULTIDRUG RESISTANT BACTERIA” (Purdue Research Foundation, priority 2018, published 2025).
